# Assay: mixing and kneading of ICG pigment with resin, compression molding
# Type: physicochemical
# Conditions: pigment (ICG in glycerol) 1 to 7 phr kneaded with PP, PVC, LDPE, EVA, TPU at 140 to 170 degrees Celsius
# Procedure: Pigment (ICG plus solvent) was mixed and kneaded with various types of resin, and then it was verified whether or not a sheet could be manufactured by compression molding.
# As the various types of resin, five types were prepared, which include polypropylene (PP), polyvinyl chloride (PVC), low-density polyethylene (LDPE), ethylene-vinyl acetate copolymer resin (EVA), and thermoplastic polyurethane (TPU). As the pigment, viscous liquid was used in which […] 25 mg of ICG were mixed and dissolved with 10 ml of glycerol.
# In addition, four patterns, i.e., 1 phr, 3 phr, 5 phr, and 7 phr of the above pigment were prepared. Note that phr is abbreviation of per hundred resin, which is a unit expressing a ratio of pigment mixed in resin whose weight is 100. For instance, if A g of pigment is in 100 g of resin, the pigment ratio can be said to be A (phr).
# The resin was charged into a mixer that had been preheated, and was kneaded until it was plasticized. As the above mixer, Laboplast mill 4 M150 manufactured by Toyo Seiki Seisaku-sho, Ltd. was used. Note that “Laboplast mill” is a registered trademark of Toyo Seiki Seisaku-sho, Ltd. This step was performed for each resin prepared in advance. Mixing and kneading was performed for five minutes at temperature set for each resin. […]
compound,measurement,value
"CC1(C)C(/C=C/C=C/C=C/C=C2\N(CCCCS(=O)(=O)[O-])c3ccc4ccccc4c3C2(C)C)=[N+](CCCCS(=O)(=O)[O-])c2ccc3ccccc3c21.[Na+] [ICG, indocyanine green]",thermal degradation due to mixing and kneading,thermal degradation of ICG due to mixing and kneading can be suppressed

# Source: patent publication US20260069722A1, “COMPOSITION FOR FLUORESCENT LABELING, FLUORESCENT PROBE, INJECTION AGENT, SYRINGE FILLING, MEDICAL APPARATUS, MEDICAL FIBER MATERIAL, METHOD FOR PRODUCING COMPOSITION FOR FLUORESCENT LABELING, AND METHOD FOR PRODUCING MEDICAL FIBER MATERIAL” (VITA CORPORATION, priority 2022, published 2026)
